Article PMC10688702, “The indole motif is essential for the antitrypanosomal activity of N^5-substituted paullones” (PLOS ONE, 2023)
Like-named read-outs stand apart in the source and are kept apart here.

Assays:
[1] = molecular target: trypanothione synthetase of L. infantum (LiTryS) (Leishmania infantum, UniProt A4I2Z3); assay: TryS activity screening assay on recombinant LiTryS; type: biochemical; details: read-out: LiTryS activity [% at 30 μM]
Method: (§1) TryS from different trypanosomatids was produced in recombinant form with an N-terminal His-tag. The constructs pET-15b TbTryS and pET-28c(+)LiTryS were used to express TryS of T. b. brucei 427 (MITat1.4, GenBank accession protein id CAC87573.1), and L. infantum JPCM5 (GenBank accession protein id CAM69145.1). E. coli strain BL21 (DE3) served as the expression host. For TbTryS, the cells were cultured in a medium based in Terrific Broth and induction with isopropyl 1-thio-β-D-galactopyranoside (IPTG), while for LiTryS, the cells were cultured in ZYM-5052 auto-induction medium. For a detailed description of the expression, see Benítez et al.. The purification was performed by immobilised metal affinity chromatography in a HisTrap Fast Flow column (GE Healthcare) followed by size exclusion chromatography. […] The fractions containing recombinant TryS with ≥95% purity were pooled and concentrated to >10 mg protein/mL using a 10 kDa cut-off Amicon filter (Millipore, Billerica, CA). Glycerol was added at a final concentration of 40% (v/v). The samples were stored at -80°C. Enzyme purity and activity were assessed by SDS-PAGE (12%) under reducing conditions and by the end-point TryS assay (see TryS activity screening assay), respectively. Protein concentration was determined using the bicinchoninic acid assay with bovine serum albumin as standard. The protocols yielded 25–30 mg TbTryS or LiTryS per litre of culture medium and homogeneous specific activity.
(§2) For all TryS, ATP was used at 150 μM because of a high background signal at higher concentrations and Spd fixed at 2 mM, in agreement with the intracellular levels calculated from data reported in the literature for trypanosomatids. GSH was adjusted to 0.05 and 0.25 mM for TbTryS and LiTryS, respectively, to avoid substrate inhibition or to approach physiological concentrations. […] Microtiter plate wells were loaded with 5 μL of the test compound, DMSO (reaction control) or a TryS specific inhibitor (inhibition control) and 40 μL of MM solution. The reactions were then started by adding 5 μL of TryS (2 and 3*10^−5 μmol*min^-1*mL^-1 for LiTryS and TbTryS, respectively) and stopped after 15 min with 200 μL BIOMOL® GREEN reagent (Enzo Life Sciences). The compounds used as inhibition control were added at concentrations that inhibited 50% TryS activity: 30 μM and 150 nM MOL2008 for TbTryS and LiTryS, respectively. Blanks were prepared for each condition by adding 5 μL of screening reaction buffer instead of the enzyme. The TryS activity is calculated as follows: TrySactivity%=A650nmCi-A650nmCiB/A650nmE-A650nmEB*100%
(§3) A650 nm Ci is the mean absorbance at 650 nm for the reaction test with compound I (Ci), A650 nm CiB is the mean absorbance at 650 nm for the blank control with compound I (CiB), A650 nm E is the mean absorbance at 650 nm for the reaction control with DMSO (E) and A650 nm EB is the mean absorbance at 650 nm for the blank control with DMSO (EB). The errors were expressed as 2 standard deviations (SD), SD estimated as σ^n−1.

[2] = system: murine macrophages J774.A1; assay: Cytotoxicity assays on murine macrophages (WST-1); type: cell-based; details: error 1 SD; for Macrophage toxicity [% at 30 μM]: % cell death at 30 μM
Method: Cytotoxicity assays on murine macrophages. Murine macrophages from the cell line J774.A1 (ATCC® TIB-67TM) were cultivated under a humidified 5% CO2/95% air atmosphere at 37°C in Dulbecco’s modified Eagle’s medium (DMEM) supplemented with 10% (v/v) FBS, 10 U/mL penicillin and 10 μg/mL streptomycin. The experimental protocol for the determination of EC50 values was identical as described by Demoro et al. 2012 [71], with the following change: 200 μL/well of a cell suspension at 6 × 10^4 cells per mL was added in a 96-well culture plate and washed with 150 μL of DMEM. The cytotoxicity of the compounds was evaluated in triplicate using the WST-1 reagent (Roche). The control treatment included cells cultured in the presence of DMSO 1% (v/v). Absorbance at 450 nm (Ai 450 nm), corresponding to the formazan dye produced by metabolically active cells, was measured with an EL 800-microplate reader. The corrected absorbance values at 450 nm (Ai c 450 nm) were obtained by subtracting the corresponding absorbance value at 630 nm (Ai 630 nm) and the blank average (Ablank 450 nm): Aic450nm=Ai450nm-Ai630nm-Ablank450nm
Cell viability (%), with the number of viable cells proportional to the absorbance, was calculated as follows: cellviability%=Aic450nm/Anegativecontrolc450nm*100%
Ai c 450 nm refers to an absorbance obtained from cells treated with compound I at a specific concentration (i) and Anegative control c 450 nm refers to an absorbance obtained from cells in the DMSO-treated control (negative control). The errors were calculated using error propagations and are expressed as one SD, estimated as σ^n−1.

[3] = system: L. infantum amastigotes (intracellular, in J774.A1 macrophages); assay: Viability assay for L. infantum amastigotes; type: cell-based; details: Leishmania infantum, J774.A1, 24 h, read-out: L. infantum amastigote viability [% at 20 μM]
Method: Viability assay for L. infantum amastigotes. L. infantum promastigotes from the reference strain MHOM/MA/67/ITMAP263, stably transfected with a vector encoding a red-shifted luciferase gene (RE9HLUC; Branchini et al.; Benítez et al.) were grown in fresh complete RPMI medium (RPMI basic medium containing 25 mM HEPES, 10% v/v iFBS, 100 U/mL penicillin, 100 μg/mL streptomycin and 15 μg/mL hygromycin B) at 28°C in sealed culture flasks. Metacyclic promastigotes were obtained by a negative selection procedure using peanut agglutinin and used to infect murine macrophages (cell line J774.A1) at a 1:10 ratio for macrophages (5×10^6 cells): parasites (5×10^7 cells). 200 μL of this suspension was added per well to a 96-well culture microplate, which was then incubated at 37°C for 24 h in a 5% CO2/95% air atmosphere incubator. […] The culture microplate was incubated in the CO2 incubator for additional 24 h. Next, the supernatant was removed and the microplate wells were washed with pre-warmed PBS (200 μL). […] All conditions were tested in triplicates and the percentage amastigote viability was calculated as described for infective T. b. brucei, with errors expressed as one SD, estimated as σ^n-1.
A macrophage cell density correction factor based on the incorporation of propidium iodide was calculated and applied to normalise amastigote viability related to host cell density in the well. For a detailed explanation of the protocol, see Benítez et al..

[4] = system: trypanothione synthetase of T. b. brucei (TbTryS); assay: TryS activity screening assay on recombinant TbTryS; type: biochemical; details: % activity at 30 μM compound, errors 2 SD
Method: as §1, §2, §3

[5] = system: bloodstream form of T. b. brucei strain 427; assay: Viability assay for T. b. brucei (whole parasite, bioluminescence); type: cell-based; details: 24 h; for T. b. brucei (BS) proliferation [% at 10 μM]: 10 μM compound; for EC50: read-out: T. b. brucei (BS) [EC50
Method: Viability assay for T. b. brucei. The bloodstream form of the monomorphic T. b. brucei strain 427, cell line 5141313, constitutively and stably expressing an ectopic copy of the Photinus pyralis red-shifted luciferase, was cultured in vitro with HMI-9 medium, supplemented with 10% fetal bovine serum, 10 U/mL penicillin (Gibco), 10 μg/mL streptomycin (Gibco), 0.2 μg/mL bleomycin (Jena Bioscience), 4 μg/mL G418 disulfate salt (Sigma-Aldrich) and 0.2 μg/mL puromycin (Invitrogen), inside a humidified incubator (Thermo Fisher Scientific) with controlled temperature (37°C) and CO2 (5%) in a 25 or 75 cm^2 vented-cap culture-flask. The anti-trypanosomal activity of compounds was evaluated in a 96-well culture plate containing 2.2 μL/well DMSO (negative control) or compounds dissolved in DMSO (1% final concentration), and 220 μL/well of a suspension of 1 × 10^5 parasites/mL. The plates were incubated at 37°C and 5% CO2 for 24 h. Next, each well was transferred to a 96-well black plate, and 20 μL of a solution containing d-luciferin (1.5 mg/mL in PBS glucose 1% w/v) and Triton X-100 (0.05% v/v) was added. Bioluminescence signal was measured in a LUMIstar OPTIMA Microplate luminometer using the following settings: 10 s shaking, 5 s/well acquisition, 0.2 s measurement delay, maximum gain, and 37°C. For the bioluminescence assay, parasite viability was calculated according to the following formula: parasiteviability%=BLcpd-BLblank/BLneg-BLblank*100%
BL refers to the mean of bioluminescence signal corresponding to the tested compound (cpd), the blank (blank, complete media containing 1% v/v DMSO), or the negative control (neg, parasites treated with 1% v/v DMSO). EC50 values were determined from concentration-response curves fitted to a four-parameter sigmoid equation using the GraphPad Prism software (version 6.0). All errors are expressed as one SD, estimated as σ^n-1. For a detailed explanation of the protocol, see Dibello et al..

trypanothione synthetase of L. infantum (LiTryS), sequence (A4I2Z3 entry or part of it): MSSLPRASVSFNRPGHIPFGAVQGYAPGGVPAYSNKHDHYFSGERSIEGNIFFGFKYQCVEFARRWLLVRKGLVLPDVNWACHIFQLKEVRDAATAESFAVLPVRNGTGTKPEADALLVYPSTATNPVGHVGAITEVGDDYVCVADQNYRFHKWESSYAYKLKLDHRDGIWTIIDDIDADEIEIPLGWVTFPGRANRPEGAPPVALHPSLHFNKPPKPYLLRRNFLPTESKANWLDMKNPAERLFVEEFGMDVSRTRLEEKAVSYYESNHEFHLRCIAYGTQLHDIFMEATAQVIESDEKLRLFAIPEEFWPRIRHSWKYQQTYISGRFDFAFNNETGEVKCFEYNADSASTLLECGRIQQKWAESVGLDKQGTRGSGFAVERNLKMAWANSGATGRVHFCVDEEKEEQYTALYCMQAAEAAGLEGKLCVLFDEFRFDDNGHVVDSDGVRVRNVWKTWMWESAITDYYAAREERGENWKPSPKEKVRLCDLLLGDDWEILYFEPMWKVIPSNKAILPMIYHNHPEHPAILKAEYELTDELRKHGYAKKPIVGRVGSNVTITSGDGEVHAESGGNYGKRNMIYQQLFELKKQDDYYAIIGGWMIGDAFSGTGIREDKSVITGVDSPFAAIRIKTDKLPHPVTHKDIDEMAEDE

SMILES | activity at 30 µM [1] [%] | Macrophage toxicity [% at 30 μM] [2] [%] | viability at 20 µM [3] [%] | Macrophage toxicity [% at stated conc.] ([2]; % cell death at 60 μM) [%] | TbTryS activity [% at 30 μM] [4] [%] | T. b. brucei (BS) proliferation [% at 10 μM] [5] [%] | EC50 ([5]; Trypanosoma brucei) [µM] | Macrophage toxicity [% at stated conc.] ([2]; % cell death at 100 μM) [%] | EC50 [5] [µM]
CC(C)(C)OC(=O)N1CCN(CCNC(=O)CN2C(=O)Cc3ccccc3-c3ccccc32)CC1 [4b, tert-Butyl 4-{2-[2-(6-oxo-6,7-dihydro-5H-dibenzo[b,d]azepin-5-yl)acetamido]ethyl}piperazine-1-carboxylate] | 103 ± 8.6 | 40 | 93.9 ± 6.6 |  |  |  |  |  | 
CN(CCNC(=O)CN1C(=O)Cc2c([nH]c3ccc(I)cc23)-c2ccc(Cl)cc21)C(=O)OC(C)(C)C [10a, tert-Butyl {2-[2-(3-chloro-9-iodo-6-oxo-7,12-dihydrobenzo[2,3]azepino[4,5-b]indol-5(6H)-yl)acetamido]ethyl}(methyl)carbamate] | 38.3 ± 4.8 |  |  | 75.9 ± 9.9 | 90.2 ± 13.2 | 0.0 ± 1.2 | 5.3 ± 1.3 |  | 
CN(CCNC(=O)CN1C(=O)Cc2c([nH]c3ccc(Cl)cc23)-c2ccc(Cl)cc21)C(=O)OC(C)(C)C [10b, tert-Butyl {2-[2-(3,9-dichloro-6-oxo-7,12-dihydrobenzo[2,3]azepino[4,5-b]indol-5(6H)-yl)acetamido]ethyl}(methyl)carbamate] | 35.4 |  |  | 47.9 ± 4.8 | 94.2 ± 17.1 | 0.0 ± 1.4 | 1.9 ± 1.2 |  | 
CN(CCNC(=O)CN1C(=O)Cc2c([nH]c3ccc(C(F)(F)F)cc23)-c2ccc(Cl)cc21)C(=O)OC(C)(C)C [10c, tert-Butyl {2-[2-(3-chloro-6-oxo-9-trifluoromethyl-7,12-dihydrobenzo[2,3]azepino[4,5-b]indol-5(6H)-yl)acetamido]ethyl}(methyl)carbamate] | 43.2 ± 9.1 |  |  |  | 95.2 ± 13.2 | 0.0 ± 1.0 | 11.6 ± 1.8 | 94.9 ± 7.1 | ~12
CC(C)(C)OC(=O)CN1C(=O)Cc2ccccc2-c2ccccc21 [compound 18, tert-Butyl 2-(6-oxo-6,7-dihydro-5H-dibenzo[b,d]azepin-5-yl)acetate] | 99.4 ± 3 | 60 |  |  |  |  |  |  | 
